Where two headings read alike, the source gives them in different places.
Key:
AntR C103S = test: Two-plasmid gfp biosensor with AntR C103S mutant in E. coli AW3110; type: cell-based, Comamonas testosterone JL40; settings: 0.2% arabinose, E. coli AW3110(DE3), Figure 3c
[1] = test system: AntR binding to the ant operator/promoter DNA; type: biochemical, Comamonas testosterone JL40
AntR [2] = target: T1, AntR (Comamonas testosteroni, UniProt A0A096F4H2); type: cell-based, Comamonas testosterone JL40
T1 sequence (A0A096F4H2 1-124): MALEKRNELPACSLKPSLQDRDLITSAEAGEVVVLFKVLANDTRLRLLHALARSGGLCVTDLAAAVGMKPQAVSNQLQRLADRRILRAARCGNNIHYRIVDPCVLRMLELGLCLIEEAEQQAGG

AntR C113S = test: Two-plasmid gfp biosensor with AntR C113S mutant in E. coli AW3110; type: cell-based, Comamonas testosterone JL40; settings: 0.2% arabinose, E. coli AW3110(DE3), Figure 3d
AntR [3] = target: T1, AntR; type: binding, Comamonas testosterone JL40; settings: read-out: apparent Kd (ITC)
AntR Y96W derivative = AntR Y96W derivative (Comamonas testosteroni, UniProt A0A096F4H2, Y97W); type: binding, Comamonas testosterone JL40; settings: read-out: apparent Kd (fluorescence quenching); pH 7.8
Chain of AntR Y96W derivative (A0A096F4H2 1-124 Y97W): as the sequence (A0A096F4H2 1-124) above, with Y97W counted along it

Compound | response of C103S mutant biosensor compared with the wild type (AntR C103S) | effect of metal(loid) on AntR mobility shift of ant promoter probe (EMSA) [1] | response of AntR repressor to metalloid (introductory summary) (AntR [2]) | induction of gfp expression in biosensor (AntR [2]; 5 µM metalloid, 0.2% arabinose, E. coli AW3110Δars, wild-type AntR) | response of C113S mutant biosensor compared with the wild type (AntR C113S) | Kd (AntR [3]) [µM] | induction of gfp expression in biosensor (AntR [2]) | Kd (AntR Y96W derivative) [µM]
antimonite [Sb(III)] | reduced responses | mobility shift decreased | responds | induced gfp expression | reduced responses | 57 |  | 
C[As](O)O [MAs(III), methylarsenite] | reduced responses |  | responds |  | reduced responses |  | induced gfp expression | 
O[As](O)O [As(III), arsenite] |  |  | only weakly |  |  | 440 | little gfp expression | ~160

Reference: publication PMC8862607 (Molecular microbiology, 2021)
